Assay results taken from patent US20240398807A1, “COMPOSITIONS AND METHODS OF TREATING KIDNEY DISEASE AND FIBROSIS” (Mitokinin, Inc., priority 2020, published 2024).
Entries after “also recorded” stand apart in the source; their conditions may differ.

Key:
[1] = system: mitochondrial DNA; experiment: kidney mtDNA/nucDNA ratio by qPCR; assay type: in vivo
Procedure: A small piece of frozen kidney tissue (˜12 mg) was homogenized and DNA extracted using the Qiagen QIAamp DNA mini kit. mtDNA/nucDNA ratio was determined using a qPCR protocol from the Aurwex lab (Quiros et al, 2017), using the following primers: 16S rRNA 5′-[…]-3′(SEQ ID NO:11) and 5′-[…]-3′ (SEQ ID NO:12); ND1 5′-[…]-3′ (SEQ ID NO: 13) and: 5′-[…]-3 (SEQ ID NO:14); HK2 5′-[…]-3′ (SEQ ID NO:15) and 5′-[…]-3′ (SEQ ID NO:16).
Referring to FIG. 4, mice (C57Bl/6) were challenged with a single intraperitoneal dose of 10 mg/kg cisplatin. Tissue lysates were examined for mitochondrial gene ND1 and nuclear gene beta actin by quantitative PCR.
Referring to FIG. 12, mice (C57Bl/6) were challenged with a single intraperitoneal dose of 10 mg/kg cisplatin and dosed by oral gavage, once per day (QD) for seven days with 35985.

[2] = system: pS65-Ub; experiment: pS65-Ub ELISA of kidney mitochondrial preparations; assay type: in vivo, mice (C57Bl/6); conditions: single i.p. 30 mg/kg cisplatin
Procedure: Kidneys were removed from -80° C. and minced on an ice block. Minced tissues were transferred to a dounce homogenizer and homogenized with 20× strokes of the 'loose' pestle and 20× strokes of the 'tight' pestle using 1 ml ul of cold mitochondrial isolation buffer (MIB, 50 mM Tris-HCl (pH 7.5), 70 mM sucrose, 210 mM sorbitol, 1 mM EDTA, 1 mM EGTA, 100 mM chloroacetamide, HaltTM Protease and Phosphatase Inhibitor Cocktail, EDTA-free (100×) (PI), 10 μM PR619). Kidney homogenate was transferred to a 1.5 ml Eppendorf tube and were centrifuged at 300×g for 5 min at 4° C. Approximately 800 ul of supernatant was transferred to a new 1.5 ml microcentrifuge tube. The supernatant (cytosol+mitochondria) was transferred to a new tube and centrifuged at 10,000 g for 20 min at 4° C. to pellet the mitochondrial fraction. After removing residual supernatant, mitochondria were resuspended in lysis buffer (100 mM Bicine pH 8.0, 0.27M Sucrose, 1 mM EDTA, 1 mM EGTA, 5 mM Na4P2O7, 100 mM Tris pH 7.5, 1% Triton X-100), containing benzonase (1:1000), HALT protease/phosphatase inhibitors (1:100), and PR-619 de-ubiquitinase inhibitor (1:1000). […] For peroxidase reaction, 50 ul of TMB reagent (Pierce #34029) was added to the wells after washing and wells were monitored closely for reaction development. […] Absorbance was measured at 450 nm using […] SpectraMax). […]

[3] = system: PINK1; experiment: Western blot for PINK1 in kidney mitochondrial preparations; assay type: in vivo, mice (C57Bl/6); conditions: C57Bl/6; single i.p. 30 mg/kg cisplatin; FIG. 3B
Procedure: Kidneys were removed from -80° C. and minced on an ice block. Minced tissues were transferred to a dounce homogenizer and homogenized with 20× strokes of the 'loose' pestle and 20× strokes of the 'tight' pestle using 1 ml ul of cold mitochondrial isolation buffer (MIB, 50 mM Tris-HCl (pH 7.5), 70 mM sucrose, 210 mM sorbitol, 1 mM EDTA, 1 mM EGTA, 100 mM chloroacetamide, HaltTM Protease and Phosphatase Inhibitor Cocktail, EDTA-free (100×) (PI), 10 μM PR619). Kidney homogenate was transferred to a 1.5 ml Eppendorf tube and were centrifuged at 300×g for 5 min at 4° C. Approximately 800 ul of supernatant was transferred to a new 1.5 ml microcentrifuge tube. The supernatant (cytosol+mitochondria) was transferred to a new tube and centrifuged at 10,000 g for 20 min at 4° C. to pellet the mitochondrial fraction. […] The total protein concentration of kidney mitopreps was measured with the Thermo Scientific Pierce BCA Protein Assay Kit (Thermo Scientific), according to its product manual. […] For each lane of a 26 well gel (4-20% CriterionTM Tris-HCl Protein Gel, Bio-Rad Laboratories), 10 μg per sample was loaded and analyzed by Western Blotting. Indicated bands were quantified using ImageStudio Lite and normalized to beta actin band intensity. […]

[4] = system: HeLa cells expressing a mitophagy indicator (mtKeima) protein; experiment: mitophagy in HeLa cells expressing mtKeima, FACS; assay type: cell-based; conditions: 1 mM of FCCP and Oligomycin then specified dose of compound, FIG. 1
Procedure: Briefly, HeLa cells expressing a mitophagy indicator (mtKeima) protein were treated with […] of FCCP and Oligomycin followed by the specified dose of compound, then analyzed by FACS to quantify the percentage of cells undergoing mitophagy.

[5] = system: HeLa cells expressing a YFP-tagged Parkin; experiment: Parkin recruitment to mitochondria, longitudinal imaging; assay type: cell-based; conditions: 1 mM of FCCP and Oligomycin then specified dose, percentage of cells with Parkin recruited at 60 minutes, FIG. 2
Procedure: HeLa cells expressing a YFP-tagged Parkin were treated with […] of FCCP and Oligomycin followed by the specified dose of compound, then analyzed by longitudinal imaging. Percentage of cells with Parkin recruited to mitochondria at 60 minutes is shown.

[6] = body weight loss in cisplatin-challenged mice; assay type: in vivo, mice (C57Bl/6)
Procedure: Referring to FIG. 9, mice (C57Bl/6) were challenged with a single intraperitoneal dose of 10 mg/kg cisplatin or saline (not shown) and dosed by oral gavage once per day (QD) with 35985.

[7] = system: KIM-1 (kidney-injury marker 1); experiment: urine KIM-1 ELISA in cisplatin-challenged mice; assay type: in vivo, mice (C57Bl/6); conditions: for KIM-1 (urine biomarker for kidney injury): single i.p. 10 mg/kg cisplatin, day 3 post-challenge
Procedure: Urine was collected from scruffed mice (serial collection) or directly from bladder using insulin syringe during harvest (terminal collection). KIM-1 was measured in mouse urine using R&D System's Mouse TIM-1/KIM-1/HAVCR DuoSet ELISA following manufacturer's published protocol.
Referring to FIG. 10, mice (C57Bl/6) were challenged with a single intraperitoneal dose of 10 mg/kg cisplatin or saline (not shown) and dosed by oral gavage once per day (QD) with 35985.

[8] = system: GDF15; experiment: serum GDF15 ELISA in cisplatin-challenged mice; assay type: in vivo, mice (C57Bl/6); conditions: single i.p. 10 mg/kg cisplatin; oral gavage QD 20 mg/kg or 50 mg/kg; after 7 days; FIG. 13
Procedure: For tissue harvest, mice were anesthetized using isofluorane. Cardiac puncture was performed to withdraw blood for serum collection. Blood was deposited into serum separator tubes and left undisturbed for 30 min to 1 hr at room temperature to allow clotting prior to serum separation by centrifugation for 2 min (10,000 g, room temperature). Collected serum was transferred to Eppendorf tubes and frozen on dry ice. After cervical dislocation, left and right kidneys were extracted and frozen until analysis.
Referring to FIG. 13, mice (C57Bl/6) were challenged with a single intraperitoneal dose of 10 mg/kg cisplatin or saline and dosed by oral gavage once per day (QD) with 20 mg/kg or 50 mg/kg 35985.

N.N.[Cl][Pt][Cl] [cisplatin, reference compound]
mitochondrial DNA (mtDNA/nucDNA ratio; ND1 vs beta actin) ([1]; C57Bl/6, single i.p. 10 mg/kg cisplatin, FIG. 4): induces reduction in mtDNA/nucDNA ratio; also recorded: significant reduction in mitochondrial DNA | pS65-Ub in kidney mitochondria ([2]; C57Bl/6, FIG. 3A): pS65-Ub increase | kidney mitochondria pS65-Ub levels ([2]; PINK1 KO mice, different times, FIG. 6, 30 mg/kg): does not induce a change in pS65 Ubiquitin; also recorded: remains unchanged | PINK1 protein in kidney mitochondria [3]: induction of PINK1

FC(F)(F)c1cc2c(N[C@@H]3CCCc4ccccc43)ncnc2[nH]1 [compound 35985]
percentage of cells undergoing mitophagy [4]: induce mitophagy in a dose dependent manner; also recorded: dose responsive increase in the percentage of cells undergoing mitophagy | rate of Parkin recruitment to mitochondria [5]: accelerate recruitment of Parkin to mitochondria; also recorded: dose responsive increase in the rate of Parkin recruitment to mitochondria | cisplatin-mediated weight-loss ([6]; single i.p. 10 mg/kg cisplatin, 35985 oral gavage QD, FIG. 9, 10 mg/kg): ameliorates cisplatin-induced body-weight loss; also recorded: dose-dependent rescue of cisplatin-mediated weight-loss | KIM-1 (urine biomarker for kidney injury) ([7]; 35985 oral gavage QD, FIG. 10): reduces kidney damage in cisplatin challenged mice; also recorded: dose-dependent rescue of KIM-1 | cisplatin-mediated mitochondrial DNA loss ([1]; single i.p. 10 mg/kg cisplatin, oral gavage QD seven days, at 10 mg/kg and above, FIG. 12): ameliorates mtDNA loss upon cisplatin challenge; also recorded: rescued cisplatin-mediated mitochondrial DNA loss | mitochondrial-stress serum biomarker GDF15 (ELISA) [8]: reduces serum GDF15 levels; also recorded: reduced mitochondrial-stress serum biomarker GDF15

c1ccc2c(c1)OC[C@@H](N1CCOCC1)[C@@H]2Nc1ncnc2[nH]c(C3CC3)cc12 [compound 40180]
percentage of cells undergoing mitophagy [4]: induce mitophagy in a dose dependent manner; also recorded: dose responsive increase in the percentage of cells undergoing mitophagy | rate of Parkin recruitment to mitochondria [5]: accelerate recruitment of Parkin to mitochondria; also recorded: dose responsive increase in the rate of Parkin recruitment to mitochondria | KIM-1 (urine biomarker for kidney injury) ([7]; 40180 oral gavage QD, FIG. 14): reduces KIM-1; also recorded: dose-dependent rescue of KIM-1

FC(F)(F)c1cc2c(N[C@H]3c4ccccc4CC[C@@H]3C3C[C@@H]4COC[C@H]4C3)ncnc2[nH]1 [compound 40270]
kidney dysfunction, KIM-1 levels ([7]; single dose cisplatin 10 mg/kg i.p., 53 mg/kg p.o., b.i.d., FIG. 17): reduces KIM-1; also recorded: Dysfunction was ameliorated

C[C@@H]1CN([C@@H]2COc3cc(F)ccc3[C@H]2Nc2ncnc3[nH]c(C(F)(F)F)cc23)CCO1 [compound 41088]
cisplatin-induced weight loss ([6]; single dose cisplatin 10 mg/kg i.p., p.o., q.d. at 1.56, 3.13, 6.25 and 12.5 mg/kg, FIG. 18): reduces weight loss; also recorded: Weight loss was ameliorated
